# Data as given in ChEMBL document CHEMBL1201862, “PubChem BioAssay data set” (2004).
# Active and inactive are the calls of the source.
# How the values were obtained:
# [1] = Vero E6 cell cytotoxicity, dose response, cytotoxicity control for non-replicating M. tuberculosis project, secondary assay (AID 492998); assay type: functional, VeroE6; details: Vero C1008
# Beta-galactosidase [2] = molecular target: T1, Beta-galactosidase (Escherichia coli, UniProt Q8VNN2); test: PubChem AID 485352; assay type: functional
# [3] = molecular target: T2, Kappa-type opioid receptor (Homo sapiens, UniProt P41145); assay type: functional
# Mu-type opioid receptor = Mu-type opioid receptor (Homo sapiens, UniProt P35372); test: HTS Image-Based Screen for Agonists of the MOR Receptor. [Related pubchem assays (depositor defined):AID1777, AID1785, AID1786, AID2133]; assay type: functional;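 note: imaging of beta-arrestin GFP recruitment into spots after receptor activation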
# [4] = microbe, parasite or virus in culture; assay type: functional; details: Mycobacterium tuberculosis
# INS1 = test: beta cell apoptosis inhibitors, cytokine rescue, dose response, luminescence, retest (AID 449756); assay type: functional, cell-based; details: Rattus norvegicus;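 note: cell death triggered by IL-1 beta plus TNF-alpha plus IFN-gamma mixture; protective hits raise ATP signal compared with cytokine alone wells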
# Beta-galactosidase [5] = molecular target: T1, Beta-galactosidase; assay type: functional
# [6] = molecular target: T3, Delta-type opioid receptor (Homo sapiens, UniProt P41143); test: HTS Image-Based Screen for Antagonists of the DOR Receptor. [Related pubchem assays (depositor defined):AID1777, AID1785, AID1786, AID2133]; assay type: functional
# [7] = HepG2 cell cytotoxicity, dose response, cytotoxicity control for non-replicating M. tuberculosis project (AID 489018); assay type: functional; details: Mycobacterium tuberculosis
# cells = assay type: functional
# [8] = molecular target: T3, Delta-type opioid receptor; test: HTS Image-Based Screen for Agonists of the DOR Receptor. [Related pubchem assays (depositor defined):AID1777, AID1786, AID2133]; assay type: functional
# [9] = THP-1 cell cytotoxicity, dose response, cytotoxicity control for non-replicating M. tuberculosis project (AID 489025); assay type: functional
# [10] = molecular target: T4, Type-1 angiotensin II receptor (Homo sapiens, UniProt P30556); test: AT1 receptor antagonists, dose response, selectivity assay for APJ receptor antagonist project, cell-based, uHTS hits (AID 463214); assay type: functional;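 note: antagonist potency against angiotensin II stimulated AT1 response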
# T4 sequence (P30556 whole entry): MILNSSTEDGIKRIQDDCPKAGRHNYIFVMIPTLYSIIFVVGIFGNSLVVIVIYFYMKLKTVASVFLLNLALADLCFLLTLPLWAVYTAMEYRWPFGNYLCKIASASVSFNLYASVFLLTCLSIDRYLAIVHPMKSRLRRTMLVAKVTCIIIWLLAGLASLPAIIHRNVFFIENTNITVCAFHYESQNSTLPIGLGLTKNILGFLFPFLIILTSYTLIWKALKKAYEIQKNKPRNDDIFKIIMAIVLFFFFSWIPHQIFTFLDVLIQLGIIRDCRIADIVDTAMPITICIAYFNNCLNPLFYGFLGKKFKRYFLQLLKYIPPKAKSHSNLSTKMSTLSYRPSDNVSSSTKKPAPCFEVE
# [11] = molecular target: T2, Kappa-type opioid receptor; assay type: functional; remark: listed apart in the source
# Hexokinase HKDC1 = molecular target: T5, Hexokinase HKDC1 (Homo sapiens, UniProt Q2TB90); test: HKDC1 hexokinase activators, dose response, biochemical, W721R variant (AID 504730); assay type: functional
# T5 sequence (Q2TB90 whole entry): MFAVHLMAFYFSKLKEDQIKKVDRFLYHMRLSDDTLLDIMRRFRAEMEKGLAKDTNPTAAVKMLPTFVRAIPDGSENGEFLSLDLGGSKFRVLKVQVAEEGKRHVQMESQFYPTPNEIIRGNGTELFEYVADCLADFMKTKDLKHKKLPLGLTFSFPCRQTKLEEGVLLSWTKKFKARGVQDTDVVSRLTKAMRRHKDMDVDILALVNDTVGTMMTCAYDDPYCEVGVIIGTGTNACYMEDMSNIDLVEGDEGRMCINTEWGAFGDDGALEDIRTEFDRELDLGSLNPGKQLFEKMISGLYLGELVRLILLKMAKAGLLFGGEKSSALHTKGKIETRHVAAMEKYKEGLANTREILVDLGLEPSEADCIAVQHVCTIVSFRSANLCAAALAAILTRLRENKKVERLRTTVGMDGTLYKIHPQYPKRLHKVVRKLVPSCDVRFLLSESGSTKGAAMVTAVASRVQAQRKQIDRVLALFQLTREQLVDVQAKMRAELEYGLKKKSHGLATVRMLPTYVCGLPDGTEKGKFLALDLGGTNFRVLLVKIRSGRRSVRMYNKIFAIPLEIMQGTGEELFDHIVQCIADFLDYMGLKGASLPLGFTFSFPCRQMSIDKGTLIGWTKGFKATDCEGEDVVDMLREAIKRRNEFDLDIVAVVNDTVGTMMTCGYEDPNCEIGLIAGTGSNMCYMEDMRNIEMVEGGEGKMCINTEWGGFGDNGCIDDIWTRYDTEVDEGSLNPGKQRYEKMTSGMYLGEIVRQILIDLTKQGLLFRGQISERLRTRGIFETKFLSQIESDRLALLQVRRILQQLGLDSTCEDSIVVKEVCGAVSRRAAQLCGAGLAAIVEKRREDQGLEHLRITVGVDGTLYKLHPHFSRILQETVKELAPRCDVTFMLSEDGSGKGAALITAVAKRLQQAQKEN
# [12] = molecular target: T6, Heat shock factor protein 1 (Mus musculus, UniProt P38532); test: inhibition of MG132-induced HSE-luciferase signal, confirmation, cell-based, NIH3T3, luminescence, dose retest (AID 2382); assay type: functional;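 note: NIH3T3 fibroblasts with HSF1-driven luciferase reporter stressed by proteasome inhibitor MG132; luminescence from HSF1-driven luciferase expression after 8 hours of MG132 stress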
# T6 sequence (P38532 whole entry): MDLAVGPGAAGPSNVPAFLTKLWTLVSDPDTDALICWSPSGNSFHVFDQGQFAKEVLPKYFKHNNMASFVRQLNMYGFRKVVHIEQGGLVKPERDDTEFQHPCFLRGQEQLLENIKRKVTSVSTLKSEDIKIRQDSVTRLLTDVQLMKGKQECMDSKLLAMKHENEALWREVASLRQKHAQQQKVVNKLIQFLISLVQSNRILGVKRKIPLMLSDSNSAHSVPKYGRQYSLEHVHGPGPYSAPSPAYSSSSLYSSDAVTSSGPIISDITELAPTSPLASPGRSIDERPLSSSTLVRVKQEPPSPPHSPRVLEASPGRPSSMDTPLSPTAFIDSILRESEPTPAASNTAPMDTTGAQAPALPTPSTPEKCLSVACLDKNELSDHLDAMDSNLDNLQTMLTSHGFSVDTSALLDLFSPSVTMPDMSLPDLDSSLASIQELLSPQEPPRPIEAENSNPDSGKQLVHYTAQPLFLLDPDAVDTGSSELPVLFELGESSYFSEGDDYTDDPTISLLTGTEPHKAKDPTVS
# Hexokinase-1 = molecular target: T7, Hexokinase-1 (Homo sapiens, UniProt P19367); test: hexokinase 1 activators, dose response, selectivity assay for HKDC1 activator project, biochemical (AID 504762); assay type: functional
# T7 sequence (P19367 whole entry): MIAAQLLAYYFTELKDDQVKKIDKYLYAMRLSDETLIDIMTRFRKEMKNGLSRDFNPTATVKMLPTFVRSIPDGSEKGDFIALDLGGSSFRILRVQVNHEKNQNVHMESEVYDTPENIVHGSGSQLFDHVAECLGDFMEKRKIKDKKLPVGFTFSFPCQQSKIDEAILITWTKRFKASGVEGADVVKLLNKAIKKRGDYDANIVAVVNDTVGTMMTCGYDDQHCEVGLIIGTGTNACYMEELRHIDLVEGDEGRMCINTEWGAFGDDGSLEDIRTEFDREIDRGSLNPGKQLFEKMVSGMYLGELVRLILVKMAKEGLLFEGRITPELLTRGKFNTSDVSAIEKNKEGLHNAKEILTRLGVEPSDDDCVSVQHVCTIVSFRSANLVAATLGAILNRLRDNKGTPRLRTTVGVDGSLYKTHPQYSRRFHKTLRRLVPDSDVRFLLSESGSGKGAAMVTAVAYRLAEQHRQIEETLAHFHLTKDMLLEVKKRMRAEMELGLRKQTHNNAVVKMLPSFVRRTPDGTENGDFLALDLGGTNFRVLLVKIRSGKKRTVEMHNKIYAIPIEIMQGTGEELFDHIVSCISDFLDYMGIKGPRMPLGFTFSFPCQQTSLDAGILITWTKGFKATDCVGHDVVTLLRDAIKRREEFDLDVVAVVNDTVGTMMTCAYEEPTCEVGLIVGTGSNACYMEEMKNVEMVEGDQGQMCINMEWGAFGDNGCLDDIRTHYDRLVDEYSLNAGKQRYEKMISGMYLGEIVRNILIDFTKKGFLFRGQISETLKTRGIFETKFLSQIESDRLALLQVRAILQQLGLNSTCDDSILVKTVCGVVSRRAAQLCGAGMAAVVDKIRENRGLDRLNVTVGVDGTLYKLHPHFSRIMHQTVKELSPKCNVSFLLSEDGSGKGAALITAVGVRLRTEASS
# [13] = molecular target: T8, Tyrosine-protein phosphatase non-receptor type 22 (Homo sapiens, UniProt Q9Y2R2); assay type: functional
# T8 sequence (Q9Y2R2 whole entry): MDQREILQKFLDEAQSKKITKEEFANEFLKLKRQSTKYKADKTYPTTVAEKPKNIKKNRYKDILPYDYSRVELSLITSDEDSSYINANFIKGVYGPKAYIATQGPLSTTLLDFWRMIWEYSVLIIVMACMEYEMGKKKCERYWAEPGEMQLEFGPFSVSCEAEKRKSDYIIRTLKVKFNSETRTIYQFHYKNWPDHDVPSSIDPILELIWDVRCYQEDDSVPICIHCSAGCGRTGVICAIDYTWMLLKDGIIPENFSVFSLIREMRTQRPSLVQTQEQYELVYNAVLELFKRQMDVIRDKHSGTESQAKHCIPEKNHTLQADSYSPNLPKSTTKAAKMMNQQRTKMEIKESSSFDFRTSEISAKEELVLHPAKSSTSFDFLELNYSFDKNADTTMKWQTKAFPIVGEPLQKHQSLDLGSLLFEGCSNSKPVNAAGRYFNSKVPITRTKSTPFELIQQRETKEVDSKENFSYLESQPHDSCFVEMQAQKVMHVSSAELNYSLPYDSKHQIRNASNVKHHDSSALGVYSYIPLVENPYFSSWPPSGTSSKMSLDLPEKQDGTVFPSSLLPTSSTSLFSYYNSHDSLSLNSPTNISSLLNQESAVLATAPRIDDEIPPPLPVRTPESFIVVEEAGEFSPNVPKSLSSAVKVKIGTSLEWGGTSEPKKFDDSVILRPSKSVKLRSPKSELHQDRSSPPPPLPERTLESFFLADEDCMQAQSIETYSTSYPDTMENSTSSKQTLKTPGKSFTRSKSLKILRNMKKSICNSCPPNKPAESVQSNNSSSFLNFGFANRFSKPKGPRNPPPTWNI
# [14] = molecular target: T8, Tyrosine-protein phosphatase non-receptor type 22; assay type: functional; remark: listed apart in the source
# [15] = molecular target: T9, Tyrosine-protein phosphatase non-receptor type 7 (Homo sapiens, UniProt P35236); assay type: functional
# T9 sequence (P35236 whole entry): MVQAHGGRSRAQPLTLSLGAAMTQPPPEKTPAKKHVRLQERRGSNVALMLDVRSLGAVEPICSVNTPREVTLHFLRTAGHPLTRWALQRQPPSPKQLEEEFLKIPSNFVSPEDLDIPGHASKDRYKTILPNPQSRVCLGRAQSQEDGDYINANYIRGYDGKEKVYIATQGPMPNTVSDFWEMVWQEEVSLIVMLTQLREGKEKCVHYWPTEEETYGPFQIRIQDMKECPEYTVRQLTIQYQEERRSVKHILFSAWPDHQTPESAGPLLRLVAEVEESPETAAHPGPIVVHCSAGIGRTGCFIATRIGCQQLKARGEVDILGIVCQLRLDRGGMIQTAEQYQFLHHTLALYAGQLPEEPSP
# [16] = A Cell Based Secondary Assay To Explore Cytotoxicity of Compounds that Sensitize Mycobacterium Tuberculosis to Beta-Lactam Antibiotics.; assay type: functional
# [17] = inhibitors of SNCA 5'UTR-driven reporter translation, confirmation, H4 neuroglioma cells, luminescence (AID 1988); assay type: functional, cell-based
# Streptococcus = test: Group A Streptococcus viability loss, dose response, counter-screen for streptokinase expression inhibitor project, luminescence, BacTiterGlo (AID 1915); assay type: functional, organism-based;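 note: potency for reduction of bacterial viability or growth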
# [18] = inhibitors of firefly luciferase expression or activity, dose response, H4 neuroglioma cells, luminescence (AID 1990); assay type: functional, cell-based
# [19] = tested on: Streptococcus sp. 'group A'; test: growth inhibition of control SK(-) GAS strain, dose response, counter-screen for streptokinase expression inhibitor project, luminescence, kanamycin, BacTiterGlo, confirmation (AID 1900); assay type: functional, organism-based
# [20] = Luminescence Cell-Based Dose Response HTS to Identify Inhibitors of 5'UTR Stem-Loop Driven Prion Protein mRNA Translation in H4 Neuroglioblastoma Cells. [Related pubchem assays: 1827 (Project Summary), 1813 (Primary HTS)]; assay type: functional
# T1 sequence (Q8VNN2 whole entry): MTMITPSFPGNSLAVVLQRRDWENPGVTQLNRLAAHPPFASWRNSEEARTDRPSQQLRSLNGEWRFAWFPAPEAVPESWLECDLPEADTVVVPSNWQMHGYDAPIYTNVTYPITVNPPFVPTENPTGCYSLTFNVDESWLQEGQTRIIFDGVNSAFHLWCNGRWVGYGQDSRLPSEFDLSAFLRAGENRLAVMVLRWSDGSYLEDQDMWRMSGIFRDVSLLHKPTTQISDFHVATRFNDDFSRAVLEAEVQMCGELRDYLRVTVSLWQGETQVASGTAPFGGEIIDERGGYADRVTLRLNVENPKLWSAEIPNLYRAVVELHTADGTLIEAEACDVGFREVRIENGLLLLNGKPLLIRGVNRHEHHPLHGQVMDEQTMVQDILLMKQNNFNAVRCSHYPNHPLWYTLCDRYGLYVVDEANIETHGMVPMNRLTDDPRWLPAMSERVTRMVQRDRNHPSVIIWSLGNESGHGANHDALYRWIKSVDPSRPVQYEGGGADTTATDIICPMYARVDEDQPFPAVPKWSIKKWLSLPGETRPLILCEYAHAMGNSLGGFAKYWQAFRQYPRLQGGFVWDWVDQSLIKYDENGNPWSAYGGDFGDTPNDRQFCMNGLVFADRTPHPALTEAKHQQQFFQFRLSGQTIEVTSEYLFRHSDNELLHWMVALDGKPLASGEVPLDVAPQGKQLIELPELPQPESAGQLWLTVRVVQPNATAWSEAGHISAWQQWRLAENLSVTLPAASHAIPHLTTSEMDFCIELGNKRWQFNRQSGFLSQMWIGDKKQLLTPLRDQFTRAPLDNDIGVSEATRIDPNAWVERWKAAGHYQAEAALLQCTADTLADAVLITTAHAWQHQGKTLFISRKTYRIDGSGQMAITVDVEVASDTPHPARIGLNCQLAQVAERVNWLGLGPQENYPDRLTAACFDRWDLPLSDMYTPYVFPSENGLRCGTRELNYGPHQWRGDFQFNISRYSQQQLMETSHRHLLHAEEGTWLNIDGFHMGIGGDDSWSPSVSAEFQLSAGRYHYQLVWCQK
# T2 sequence (P41145 whole entry): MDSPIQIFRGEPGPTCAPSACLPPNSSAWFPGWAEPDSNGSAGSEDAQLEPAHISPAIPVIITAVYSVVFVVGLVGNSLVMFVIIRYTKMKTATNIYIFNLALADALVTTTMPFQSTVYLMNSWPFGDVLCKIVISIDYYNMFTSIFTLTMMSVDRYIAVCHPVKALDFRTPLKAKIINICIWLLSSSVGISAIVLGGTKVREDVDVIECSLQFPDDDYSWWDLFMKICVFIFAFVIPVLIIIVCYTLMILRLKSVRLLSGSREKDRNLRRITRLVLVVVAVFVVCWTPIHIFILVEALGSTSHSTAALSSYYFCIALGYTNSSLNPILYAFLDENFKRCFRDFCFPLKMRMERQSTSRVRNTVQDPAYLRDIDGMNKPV
# T3 sequence (P41143 whole entry): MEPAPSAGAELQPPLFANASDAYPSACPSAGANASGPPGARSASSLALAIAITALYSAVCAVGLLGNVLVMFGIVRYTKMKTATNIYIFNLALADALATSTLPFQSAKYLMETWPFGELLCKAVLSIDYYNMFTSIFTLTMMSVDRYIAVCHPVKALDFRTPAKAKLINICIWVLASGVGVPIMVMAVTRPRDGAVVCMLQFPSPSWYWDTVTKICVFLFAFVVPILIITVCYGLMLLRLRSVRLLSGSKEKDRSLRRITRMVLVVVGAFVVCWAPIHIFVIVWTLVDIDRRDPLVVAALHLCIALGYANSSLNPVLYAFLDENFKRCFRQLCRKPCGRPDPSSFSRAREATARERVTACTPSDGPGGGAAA
# Chain of Mu-type opioid receptor (P35372 whole entry): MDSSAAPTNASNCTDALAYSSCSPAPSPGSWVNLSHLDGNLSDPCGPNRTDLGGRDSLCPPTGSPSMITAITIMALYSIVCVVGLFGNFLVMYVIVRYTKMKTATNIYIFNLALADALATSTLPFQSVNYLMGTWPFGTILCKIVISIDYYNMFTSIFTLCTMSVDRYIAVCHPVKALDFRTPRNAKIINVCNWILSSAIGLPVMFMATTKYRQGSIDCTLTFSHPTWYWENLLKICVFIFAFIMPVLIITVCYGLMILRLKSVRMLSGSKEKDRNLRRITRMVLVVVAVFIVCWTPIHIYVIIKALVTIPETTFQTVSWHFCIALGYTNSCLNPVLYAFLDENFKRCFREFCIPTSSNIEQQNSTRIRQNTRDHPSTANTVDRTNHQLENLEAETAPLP
compound,measurement,setting,value
O=C(NNC(=O)C12CC3CC(CC(C3)C1)C2)c1ccccn1,CC50,[1],8.61 µM (active)
same,EC50,Beta-galactosidase [2],> 40 µM (inactive)
same,IC50,[3],> 32 µM
same,EC50,Mu-type opioid receptor,> 32 µM (inactive)
same,CC50,[4],16.7 µM (active)
same,AC50,INS1,3.14 µM (active)
same,EC50,Beta-galactosidase [5],> 31.5 µM (inactive)
same,IC50,[6],> 32 µM (inactive)
same,CC50,[7],> 20 µM (active)
same,IC50,cells,9.85 µM (active)
same,EC50,[8],> 32 µM (inactive)
same,CC50,[9],5.31 µM (active)
same,IC50,[10],11.2 µM (active)
same,IC50,[11],15 µM (active)
CCc1ccc(C2=NN=C(Nc3cccc(S(=O)(=O)N(C)C)c3)SC2)cc1,EC50,Hexokinase HKDC1,10.3 µM (active)
same,AC50,INS1,7.54 µM (active)
same,EC50,[12],> 195 µM (not active)
same,EC50,Hexokinase-1,8.26 µM (active)
Cc1ccc(C(=O)O)cc1NC(=O)c1ccc2c(c1)C(=O)N(c1ccc([N+](=O)[O-])cc1)C2=O,IC50,[13],15 µM (active)
same,IC50,[14],21.6 µM (active)
same,IC50,[15],10.9 µM (active)
CCCCN(CCCC)C(=S)N/N=C/c1c(C)nn(-c2ccccc2)c1O,CC50,[16],5.22 µM (active)
same,EC50,[17],> 120 µM (not active)
same,EC50,Hexokinase HKDC1,28.7 µM (inactive)
same,EC50,Streptococcus,11.4 µM (active)
same,EC50,Beta-galactosidase [2],> 40 µM (inactive)
same,EC50,[18],13.3 µM (active)
same,EC50,[19],0.221 µM (active)
same,EC50,[20],4.19 µM (active)
same,EC50,Hexokinase-1,> 80 µM (inactive)
same,IC50,[10],13.3 µM (active)
